US7691854B2, “Dihydropyridine derivatives for use as human neutrophil elastase inhibitors” (Bayer Schering Pharma Aktiengesellschaft, priority 2002, dated 2010)

What was measured:
[1] = biological target: T1, human neutrophil elastase (HNE) (Homo sapiens, UniProt P08246); test: In vitro inhibition of HNE using a fluorogenic peptide substrate (MeOSuc-Ala-Ala-Pro-Val-AMC); assay type: biochemical; settings: 384 MTP format
T1 construct: purchased SERVA Electrophoresis GmbH, Heidelberg, Germany #20927.01
T1 sequence (P08246 30-267): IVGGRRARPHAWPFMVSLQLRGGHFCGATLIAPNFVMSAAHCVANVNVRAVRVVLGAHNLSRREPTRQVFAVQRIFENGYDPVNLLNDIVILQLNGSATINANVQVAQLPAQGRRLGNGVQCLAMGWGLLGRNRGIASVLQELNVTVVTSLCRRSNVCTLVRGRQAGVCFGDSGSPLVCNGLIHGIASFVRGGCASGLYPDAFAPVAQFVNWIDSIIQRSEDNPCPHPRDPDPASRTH
Protocol: I. In Vitro Enzyme Assays of Human Neutrophil Elastase (HNE)
• assay buffer: 0.1 M HEPES-NaOH buffer pH 7.4, 0.5 M NaCl, 0.1% (w/v) bovine serum albumin; • suitable concentration (see below) of HNE (18 U/mg lyophil., #20927.01, SERVA Electrophoresis GmbH, Heidelberg, Germany) in assay buffer; • suitable concentration (see below) of substrate in assay buffer; • suitable concentration of test compounds diluted with assay buffer from a 10 mM stock solution in DMSO.
In Vitro Inhibition of HNE Using a Fluorogenic Peptide Substrate (Continuous Read-Out Signal, 384 MTP Assay Format):
In this protocol, the elastase substrate MeOSuc-Ala-Ala-Pro-Val-AMC (#324740, Calbiochem-Novabiochem Corporation, Merck KGaA, Darmstadt, Germany) is used. The test solution is prepared by mixing 10 μl of test compound dilution, 20 μl of HNE enzyme dilution (final concentration 8-0.4 μU/ml, routinely 2.1 μU/ml) and 20 μl of substrate dilution (final concentration 1 mM-1 μM, routinely 20 μM), respectively. The solution is incubated for 0-2 hrs at 37° C. (routinely one hour). The fluorescence of the liberated AMC due to the enzymatic reaction is measured at 37° C. (TECAN spectra fluor plus plate reader). The rate of increase of the fluorescence (ex. 395 nm, em. 460 nm) is proportional to elastase activity. IC50 values are determined by RFU-versus-[I] plots. Km and Km(app.) values are determined by Lineweaver-Burk plots and converted to Ki values by Dixon plots.

[2] = system: human polymorphonuclear cells (PMNs); test: In vitro PMN elastolysis assay (tritiated elastin); assay type: cell-based
Protocol: In Vitro PMN Elastolysis Assay:
This assay is used to determine the elastolytic potential of human polymorphonuclear cells (PMNs) and assess the proportion of degradation due to, neutrophil elastase [cf. Z. W. She et al., Am. J. Respir. Cell. Mol. Biol. 9, 386-392 (1993)].
Tritiated elastin, in suspension, is coated on to a 96 well plate at 10 μg per well. Test and reference [ZD-0892 (J. Med. Chem. 40, 1876-1885, 3173-3181 (1997), WO 95/21855) and α1 protease inhibitor (α1PI)] compounds are added to the wells at the appropriate concentrations. Human PMNs are separated from peripheral venous blood of healthy donors and resuspended in culture media. The neutrophils are added to the coated wells at concentrations ranging between 1×10^6 to 1×10^5 cells per well. Porcine pancreatic elastase (1.3 μM) is used as a positive control for the assay, and α1PI (1.2 μM) is used as the positive inhibitor of neutrophil elastase. The cellular control is PMNs without compound at each appropriate cell density. The cells plus compounds are incubated in a humidified incubator at 37° C. for 4 hours. The plates are centrifuged to allow the harvest of cell supernatant only. The supernatant is transferred in 75 μl volumes to corresponding wells of a 96 well Lumaplate™ (solid scintillant containing plates). The plates are dried until no liquid is visible in the wells and read in a beta counter for 3 minutes per well. […]

Compound | IC50 [1] | also measured
CCNC(=O)NC1=C(C(=O)OCC)C(c2ccc(C#N)cc2)C(C(=O)OCC)=C(C)N1c1cccc(C(F)(F)F)c1 (stereo not shown) [Example 44, Diethyl 4-(4-cyanophenyl)-2-{[(ethylamino)carbonyl]amino}-6-methyl-1-[3-(trifluoromethyl)phenyl]-1,4-dihydro-3,5-pyridinedicarboxylate] | 130 nM | 
COc1ccc(C(=O)N[C@H](C(=O)N2CCC[C@H]2C(=O)N[C@H](C(=O)C(F)(F)F)C(C)C)C(C)C)cc1 [ZD-0892] |  | IC50 ([2]; n=2 different donors at 3.6×10^5 cells per well, read-out: IC50 (mean±s.e.m.)): 45.5 ± 7.75 nM
CCOC(=O)C1=C(C)N(c2cccc(C(F)(F)F)c2)C(N)=C(C(=O)OCC)C1c1ccc(Br)nc1 (stereo not shown) [Example 43] | 800 nM | 
α1PI: α1 protease inhibitor, reference and positive inhibitor of neutrophil elastase |  | inhibition of elastolysis of 3H-elastin (mean±s.e.m.) ([2]; at 1.2 μM, n=3 different donors at 3.6×10^5 cells per well): 83.46±3.97%

Second part, led by results:

IC50 [1] | Compound | also measured
27 nM | CC1=C(C#N)C(c2ccc(C#N)cc2)C(C(N)=O)=C(N)N1c1cccc(C(F)(F)F)c1 (stereo not shown) [Example 4, 2-Amino-5-cyano-4-(4-cyanophenyl)-6-methyl-1-[3-(trifluoromethyl)phenyl]-1,4-dihydro-3-pyridinecarboxamide] | 
10 nM | CCOC(=O)C1=C(C)N(c2cccc(C(F)(F)F)c2)C(N)=C(C2=NC(C)(C)CO2)C1c1ccc(C#N)cc1 (stereo not shown) [Example 50, Ethyl 6-amino-4-(4-cyanophenyl)-5-(4,4-dimethyl-4,5-dihydro-1,3-oxazol-2-yl)-2-methyl-1-[3-(trifluoromethyl)phenyl]-1,4-dihydro-3-pyridinecarboxylate] | 
30 nM | CCOC(=O)C1=C(C)N(c2cccc(C(F)(F)F)c2)C(N)=C(C(=O)OCC)C1c1ccc(C#N)cc1 (stereo not shown) [Example 2, Diethyl 2-amino-4-(4-cyanophenyl)-6-methyl-1-[3-(trifluoromethyl)phenyl]-1,4-dihydro-3,5-pyridine-dicarboxylate] | 
90 nM | CC(=O)C1=C(N)N(c2cccc(C(F)(F)F)c2)C(C)=C(C#N)C1c1ccc(C#N)cc1 (stereo not shown) [Example 12, 5-Acetyl-6-amino-4-(4-cyanophenyl)-2-methyl-1-[3-(trifluoromethyl)phenyl]-1,4-dihydro-3-pyridinecarbonitrile] | 
40 nM | CCOC(=O)C1=C(N)N(c2cccc(C(F)(F)F)c2)C(COC)=C(C(=O)OC)C1c1ccc(C#N)cc1 (stereo not shown) [Example 25] | 
500 nM | CCOC(=O)C1=C(C)N(c2cccc(C(F)(F)F)c2)C(N(C)C)=C(C(=O)OCC)C1c1ccc(C#N)cc1 (stereo not shown) [Example 47, Diethyl 4-(4-cyanophenyl)-2-(dimethylamino)-6-methyl-1-[3-(trifluoromethyl)-phenyl]-1,4-dihydro-3,5-pyridinedicarboxylate] | 
